Measured values published in US20240293443A1, “HEPARAN SULFATE MIMETICS TO IMPROVE GLUCOSE CLEARANCE” (The Regents of the University of California, priority 2021, published 2024).
Entries after “also recorded” stand apart in the source; their conditions may differ.

Legend:
WT adipocytes [1] = assay: 3[H]-2-deoxy-glucose uptake in WT MEF-derived adipocytes; format: cell-based, mouse; conditions: for glucose clearance in differentiated adipocytes: WT, Wnt inhibitor treatment during the first 3 days of adipogenesis
Experimental: Cells were seeded on a 24-well plate at a density of 30,000 cells/cm^2. Cells were allowed to grow to confluence for 48 hours. At this point (Day 0), the media were removed, cells were washed with PBS, and differentiation media with or without heparin (100 μg/ml) were added. […] On Day 3 of differentiation, cells were washed with PBS and treated with insulin media, which consisted of 2 μM insulin, and 1 μM rosiglitazone in DMEM with 10% FBS. The cellular cholesterol and triglyceride content was determined after lysing cells in 0.1M NaOH. Total plasma cholesterol and plasma triglyceride levels (Sekisui Diagnostics) and protein levels (BCA protein assay) were determined using commercially available kits.
Cells are washed twice with PBS and placed into DMEM with 2 mg/mL BSA for two hours. […] The insulin solution is then removed and the cells are washed twice with transport solution before radioactive transport solution is added, which consists of 0.25 μCi/well of 3[H]-2-deoxy-glucose and 0.025 mM 2-deoxy-glucose. After a 10-minute incubation in the radioactive transport solution, it is removed and the, the glucose uptake is halted by addition of ice cold PBS. The cold PBS is removed and each well is washed twice with PBS. Then, lysis buffer consisting of 0.1 M NaOH and 0.1% w/v sodium dodecyl sulfate, is added to each well. The radioactive lysate was transferred to a scintillation vial containing 5 mL of Ultima Gold liquid scintillation fluid and analyzed using a liquid Scintillation counter.
Cells were differentiated for 6 days using the standard adipogenic differentiation protocol described above. Each day on Days 0-3, the cells were washed with PBS and incubated with 200 μL solution of DMEM containing GPs at the indicated concentrations added for 1 hour at 37° C. After this time, the media were removed, the cells were washed with PBS, and fresh differentiation media were added. On Day 6, the adipocytes were subjected to the ^3[H]-2-deoxy-glucose uptake assay and the spent media were analyzed for glucose and lactate content as described above.

Ndst1−/− adipocytes = assay: 3[H]-2-deoxy-glucose uptake in Ndst1−/− MEF-derived adipocytes; format: cell-based, mouse; conditions: for glucose clearance in differentiated adipocytes: Ndst1−/−, Wnt inhibitor treatment during the first 3 days of adipogenesis
Experimental: Cells were seeded on a 24-well plate at a density of 30,000 cells/cm^2. Cells were allowed to grow to confluence for 48 hours. At this point (Day 0), the media were removed, cells were washed with PBS, and differentiation media with or without heparin (100 μg/ml) were added. […] On Day 3 of differentiation, cells were washed with PBS and treated with insulin media, which consisted of 2 μM insulin, and 1 μM rosiglitazone in DMEM with 10% FBS. The cellular cholesterol and triglyceride content was determined after lysing cells in 0.1M NaOH. Total plasma cholesterol and plasma triglyceride levels (Sekisui Diagnostics) and protein levels (BCA protein assay) were determined using commercially available kits. Cells are washed twice with PBS and placed into DMEM with 2 mg/mL BSA for two hours. […] The insulin solution is then removed and the cells are washed twice with transport solution before radioactive transport solution is added, which consists of 0.25 μCi/well of 3[H]-2-deoxy-glucose and 0.025 mM 2-deoxy-glucose. After a 10-minute incubation in the radioactive transport solution, it is removed and the, the glucose uptake is halted by addition of ice cold PBS. The cold PBS is removed and each well is washed twice with PBS. Then, lysis buffer consisting of 0.1 M NaOH and 0.1% w/v sodium dodecyl sulfate, is added to each well. The radioactive lysate was transferred to a scintillation vial containing 5 mL of Ultima Gold liquid scintillation fluid and analyzed using a liquid Scintillation counter. Cells were differentiated for 6 days using the standard adipogenic differentiation protocol described above. Each day on Days 0-3, the cells were washed with PBS and incubated with 200 μL solution of DMEM containing GPs at the indicated concentrations added for 1 hour at 37° C. After this time, the media were removed, the cells were washed with PBS, and fresh differentiation media were added. On Day 6, the adipocytes were subjected to the ^3[H]-2-deoxy-glucose uptake assay and the spent media were analyzed for glucose and lactate content as described above.

Wnt5a = target: T1, Wnt5a (Homo sapiens, UniProt P41221); assay: Wnt binding to HS-mimetics via ELISA (Wnt5a); conditions: immobilized Wnt5a, biotinylated glycopolymer or heparin
T1 sequence (P41221 62-380): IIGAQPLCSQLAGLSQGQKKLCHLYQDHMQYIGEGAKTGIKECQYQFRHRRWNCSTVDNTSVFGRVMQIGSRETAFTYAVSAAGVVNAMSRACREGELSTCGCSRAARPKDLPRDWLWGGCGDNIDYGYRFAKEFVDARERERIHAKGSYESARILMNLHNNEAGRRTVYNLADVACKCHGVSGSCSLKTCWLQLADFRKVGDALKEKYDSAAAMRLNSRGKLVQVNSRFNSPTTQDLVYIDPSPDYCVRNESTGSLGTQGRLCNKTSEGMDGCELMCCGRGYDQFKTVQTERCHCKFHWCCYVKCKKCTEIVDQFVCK
Experimental: (§1) Wnt5a and Wnt10b proteins (10 nM solution in 1% (w/v) BSA/DPBS) were immobilized on 96-well tissue culture treated plates overnight at 4° C. The plates were washed twice with 0.05% (v/v) Tween-20 in DPBS and blocked with 1% (w/v) BSA/DPBS for 6 hours at room temperature. Biotinylated HS-mimetic glycopolymers GP or heparin were added to the wells at increasing concentrations in 1% (w/v) BSA/DPBS. After 1 hour incubation, the wells were washed three times with 0.05% Tween-20 in DPBS. Streptavidin-HRP (1:1000 in 1% BSA/DPBS) was added for 45 min at ambient temperature. The wells were again washed three times in 0.05% Tween-20 in DPBS, followed by treatment with 100 μL of TMB substrate for 2-5 min before quenching with 100 μL of 2N sulfuric acid. Absorbance (450 nm) was measured using a Molecular Devices SpectraMax plate reader.

Wnt10b = Wnt10b (Homo sapiens, UniProt O00744); assay: Wnt binding to HS-mimetics via ELISA (Wnt10b); conditions: immobilized Wnt10b, biotinylated glycopolymer or heparin
Chain of Wnt10b (O00744 29-389, species assumed): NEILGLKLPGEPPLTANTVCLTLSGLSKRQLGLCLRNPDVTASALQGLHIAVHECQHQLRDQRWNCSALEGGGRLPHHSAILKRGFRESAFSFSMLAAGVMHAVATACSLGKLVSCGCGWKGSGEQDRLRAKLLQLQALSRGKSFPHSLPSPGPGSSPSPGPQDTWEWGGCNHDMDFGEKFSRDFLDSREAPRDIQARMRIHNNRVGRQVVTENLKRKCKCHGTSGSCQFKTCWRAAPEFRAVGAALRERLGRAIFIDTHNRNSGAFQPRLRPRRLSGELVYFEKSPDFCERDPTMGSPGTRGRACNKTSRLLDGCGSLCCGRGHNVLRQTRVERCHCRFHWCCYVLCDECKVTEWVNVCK
Experimental: as §1

WT adipocytes [2] = assay: Glucose and lactate in spent media (YSI), adipocytes differentiated with heparin; format: cell-based, mouse; conditions: heparin 100 μg/ml during differentiation; spent media day 6
Experimental: Cells were seeded on a 24-well plate at a density of 30,000 cells/cm^2. Cells were allowed to grow to confluence for 48 hours. At this point (Day 0), the media were removed, cells were washed with PBS, and differentiation media with or without heparin (100 μg/ml) were added. Differentiation media consisted of 0.1 μM dexamethasone, 450 μM 3-isobutyl-1-methylxanthine, 2 μM insulin, and 1 μM rosiglitazone in DMEM supplemented with 10% FBS. On Day 3 of differentiation, cells were washed with PBS and treated with insulin media, which consisted of 2 μM insulin, and 1 μM rosiglitazone in DMEM with 10% FBS. The cellular cholesterol and triglyceride content was determined after lysing cells in 0.1M NaOH. Total plasma cholesterol and plasma triglyceride levels (Sekisui Diagnostics) and protein levels (BCA protein assay) were determined using commercially available kits.
MEFs are differentiated to day 6 into adipocytes in a 24 well plate, and on day six (6) 500 μL of media is collected from each well in an Eppendorf tube and immediately frozen in liquid nitrogen. […] Then, the filtrate is analyzed using a YSl 2900, where the sample is loaded into two wells of a 96 well plate, 200 μL media per well. The samples are then analyzed for lactate and glucose concentration.

[3] = tested on: Primary adipocytes derived from murine subcutaneous white adipose tissue (sWAT) stromal vascular cells; assay: Glucose uptake in primary adipocytes from sWAT stromal vascular cells; format: cell-based; conditions: co-incubated with heparin during adipogenesis
Experimental: Around 1 g subcutaneous WAT from 8- to 14-week-old, male or female mice was dissected, washed, minced, and digested in 1 ml DMEM containing 0.25 U/ml collagenase D (Sigma) at 37° C. with constant agitation at 200 rpm for 25-35 min. To stop the digestion, complete DMEM including 10% FBS and 1% P/S was added to the digestion mixture. Then the cells were filtered through a 100 μm cell strainer. After centrifugation at 200×g for 10 min, the floating adipocyte fraction (AF) was collected for protein isolation, while the pellet containing stromal vascular fraction (SVF) was resuspended in fresh complete medium and seeded on a 10-cm cell culture dish. At a confluency of ˜80%, cells were seeded on 6- and 12-well plates and grown to confluency for differentiation. Differentiation was induced by using complete DMEM/F12 media supplemented with 1 μM dexamethasone, 0.5 mM isobutylmethylxanthine (IBMX), 5 μg/ml insulin, and 1 μM rosiglitazone. Three days after induction, medium was changed to complete DMEM/F12 supplemented with 5 μg/ml insulin for two days, afterwards cells were maintained in complete DMEM/F12 medium. […]
Cells are washed twice with PBS and placed into DMEM with 2 mg/mL BSA for two hours. […] The radioactive lysate was transferred to a scintillation vial containing 5 mL of Ultima Gold liquid scintillation fluid and analyzed using a liquid Scintillation counter.

lipoprotein lipase (LPL) = target: T2, lipoprotein lipase (LPL) (Bos taurus, UniProt P11151); assay: Lipoprotein lipase (LPL) binding to adipocytes; format: cell-based, Bovine; conditions: exogenous heparin 100 μg/ml
T2 construct: gift of Gunilla Olivecrona, Umea University
T2 sequence (P11151 29-478): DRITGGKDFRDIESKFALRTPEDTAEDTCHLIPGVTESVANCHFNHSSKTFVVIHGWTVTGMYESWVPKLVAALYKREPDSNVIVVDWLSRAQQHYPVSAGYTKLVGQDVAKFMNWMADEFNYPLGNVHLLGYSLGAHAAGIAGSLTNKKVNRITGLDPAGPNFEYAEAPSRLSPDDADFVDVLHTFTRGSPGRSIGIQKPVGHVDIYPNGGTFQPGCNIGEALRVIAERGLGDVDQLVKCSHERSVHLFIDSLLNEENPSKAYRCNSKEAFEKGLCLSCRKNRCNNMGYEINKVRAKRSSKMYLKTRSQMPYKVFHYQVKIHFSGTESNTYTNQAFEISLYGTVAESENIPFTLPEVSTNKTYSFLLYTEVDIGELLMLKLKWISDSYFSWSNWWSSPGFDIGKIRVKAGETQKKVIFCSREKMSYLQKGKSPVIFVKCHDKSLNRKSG
Experimental: Bovine LPL generously provided by Gunilla Olivecrona (Department of Biomedical Sciences, Umea University, Umea Sweden)^42. Enzyme activity was determined using ^3H radiolabeled substrate as previously described^43. Molar ratio of biotin to LPL was determined in a HABA displacement assay (Pierce Biotin Quantitation Kit).
LPL binding assays were performed similar to as previously described. Cells were harvested using Accutase cell detachment solution (Millipore) and washed twice with PBS. Cells were incubated for 15 min at 37° C. in serum free media in the absence or presence of 5 mU/ml each of recombinant heparin lyases 1, 11, and 111. Treated and untreated cells were washed twice with PBS, chilled on ice for 20 min and incubated with 50 nM biotinylated LPL in 1% BSA supplemented PBS at 4° C. for 1 hour. Following the incubation, cells were washed twice in ice-cold PBS and incubated with 0.4 μg/mL Phycoerythrin-Cy5 conjugated Streptavidin in 1% BSA supplemented PBS at 4° C. A set of cells was exposed only to Phycoerythrin-Cy5 conjugated Streptavidin and was used as background control. Cells were washed twice with PBS and analyzed by flow cytometry.

WT adipocytes [4] = assay: [9,10-3H(N)]-Palmitate (FFA) uptake in adipocytes; format: cell-based, mouse; conditions: chemical inhibition of HS (heparin 100 μg/ml)

Cc1cc(-c2ccc(CC(=O)Nc3ccc(-c4cccnc4)cc3)cc2)ccn1 [Wnt-C59]
toxicity to WT adipocytes (WT adipocytes [1]; 10 nM): toxic | glucose clearance in differentiated adipocytes (WT adipocytes [1]): no effect on cellular glucose clearance | glucose clearance in differentiated adipocytes (Ndst1−/− adipocytes): enhanced glucose clearance capacity

Oc1nc(-c2ccc(C(F)(F)F)cc2)nc2c1CSCC2 [XAV-939]
glucose clearance in differentiated adipocytes (WT adipocytes [1]): enhanced glucose clearance | glucose clearance in differentiated adipocytes (Ndst1−/− adipocytes): enhanced glucose clearance

heparin
EC50 (Wnt5a): 0.0282 µM | EC50 (Wnt10b): 0.0301 µM | reduction of glucose uptake (WT adipocytes [1]; WT cells treated with exogenous heparin (100 μg/ml) during differentiation, basal): 45% | differential in glucose uptake versus WT after insulin stimulation (WT adipocytes [1]; WT cells with heparin, insulin stimulated): −44% | glucose uptake at day 6 (WT adipocytes [1]; heparin 100 μg/ml from start, cells treated up to day 3 and beyond): significantly reduced glucose uptake | glucose uptake, acute treatment of mature adipocytes (WT adipocytes [1]; heparin 100 μg/ml simultaneously with 3[H]-2-deoxy-glucose administration, WT and Ndst1−/−): unaltered glucose uptake | glucose uptake at day 6 (WT adipocytes [1]; heparin added after day 4 of differentiation): can no longer impact glucose uptake | glucose uptake potential relative to untreated WT adipocytes (WT adipocytes [1]; soluble heparin 100 μg/ml): reduces glucose uptake potential | 3[H]-2-deoxy-glucose uptake (Ndst1−/− adipocytes; Ndst1−/− MEFs treated 1 hour at 37° C. on day 0 to 3, differentiated adipocytes day 6): had no effect; also recorded: no effect on cellular glucose uptake | effect of exogenous heparin on glucose uptake (Ndst1−/− adipocytes; Ndst1−/− cells treated with exogenous heparin): did not have an additive effect on glucose uptake | glucose levels in the culture medium (WT adipocytes [2]): high glucose levels remaining | lactate production (WT adipocytes [2]): decreased lactate production | glucose uptake [3]: reduced glucose uptake | binding of lipoprotein lipase (LPL) (lipoprotein lipase (LPL)): reduced binding | FFA uptake (WT adipocytes [4]): did not negatively affect FFA uptake
